Molecules are shown by their SMILES. Where only a bound is given, the exact number is not on record here.

Sequence of recombinant human integrin αvβ6 (P06756 31-992): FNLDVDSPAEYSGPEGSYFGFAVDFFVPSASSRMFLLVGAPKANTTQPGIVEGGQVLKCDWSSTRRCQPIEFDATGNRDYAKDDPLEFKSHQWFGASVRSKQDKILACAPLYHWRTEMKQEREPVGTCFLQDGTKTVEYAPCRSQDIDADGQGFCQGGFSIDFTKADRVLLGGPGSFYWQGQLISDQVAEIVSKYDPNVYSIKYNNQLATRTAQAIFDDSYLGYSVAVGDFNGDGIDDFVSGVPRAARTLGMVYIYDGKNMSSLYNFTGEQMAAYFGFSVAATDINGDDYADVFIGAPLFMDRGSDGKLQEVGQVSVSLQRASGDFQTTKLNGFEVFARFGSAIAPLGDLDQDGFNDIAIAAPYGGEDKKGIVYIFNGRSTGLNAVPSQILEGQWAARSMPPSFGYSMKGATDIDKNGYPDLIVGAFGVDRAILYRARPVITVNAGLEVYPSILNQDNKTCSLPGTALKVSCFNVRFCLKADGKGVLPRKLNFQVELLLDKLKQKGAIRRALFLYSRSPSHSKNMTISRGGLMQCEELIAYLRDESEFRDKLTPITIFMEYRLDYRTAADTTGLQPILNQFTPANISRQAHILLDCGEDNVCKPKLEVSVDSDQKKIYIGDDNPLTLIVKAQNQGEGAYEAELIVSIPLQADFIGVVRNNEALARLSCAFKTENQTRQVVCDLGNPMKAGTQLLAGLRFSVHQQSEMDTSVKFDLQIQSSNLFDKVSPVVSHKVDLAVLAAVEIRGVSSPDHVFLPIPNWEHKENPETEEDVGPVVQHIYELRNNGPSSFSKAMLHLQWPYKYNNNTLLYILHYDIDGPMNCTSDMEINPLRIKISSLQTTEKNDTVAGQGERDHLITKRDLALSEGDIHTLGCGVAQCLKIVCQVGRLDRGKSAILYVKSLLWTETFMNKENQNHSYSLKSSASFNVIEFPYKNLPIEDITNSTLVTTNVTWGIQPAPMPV
Sequence of recombinant human integrin αvβ6 (P18564 22-707): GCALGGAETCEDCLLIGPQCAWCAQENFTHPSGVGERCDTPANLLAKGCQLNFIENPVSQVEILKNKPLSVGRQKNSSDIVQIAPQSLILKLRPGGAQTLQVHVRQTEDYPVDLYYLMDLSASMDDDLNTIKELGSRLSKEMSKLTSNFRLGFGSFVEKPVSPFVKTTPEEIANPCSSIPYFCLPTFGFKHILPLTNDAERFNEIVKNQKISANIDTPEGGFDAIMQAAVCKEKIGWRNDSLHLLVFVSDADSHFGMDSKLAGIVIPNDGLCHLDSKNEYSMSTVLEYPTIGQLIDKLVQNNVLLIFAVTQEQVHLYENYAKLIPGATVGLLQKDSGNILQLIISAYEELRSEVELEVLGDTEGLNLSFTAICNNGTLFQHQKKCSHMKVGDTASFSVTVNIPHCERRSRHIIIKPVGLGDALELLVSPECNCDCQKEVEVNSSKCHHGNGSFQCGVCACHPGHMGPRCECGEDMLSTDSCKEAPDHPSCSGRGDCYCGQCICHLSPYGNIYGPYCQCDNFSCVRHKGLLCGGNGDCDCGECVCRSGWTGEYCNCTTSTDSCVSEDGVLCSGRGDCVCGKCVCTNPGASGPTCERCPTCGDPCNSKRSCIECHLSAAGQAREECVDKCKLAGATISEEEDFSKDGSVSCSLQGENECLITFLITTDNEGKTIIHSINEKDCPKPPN

This test has as its target recombinant human integrin αvβ6 (Homo sapiens (Human), UniProt P06756+P18564). As to the kind of experiment: Solid Phase Integrin αvβ6 Binding Assay. The conditions noted are these: inhibition of recombinant TGFβ1 LAP binding to coated integrin; IC50 given as range. The method, then:
Microplates were coated with recombinant human integrin αvβ6 (2 ug/ml) in PBS (100 ul/well 25° C. overnight). The coating solution was removed, washed with wash buffer (0.05% Tween 20; 0.5 mM MnCl2; in 1×TBS). Plate was blocked with 200 ul/well of Block Buffer (1% BSA; 5% sucrose; 0.5 mM MnCl2; in 1×TBS) at 37° C. for 2 h. Dilutions of testing compounds and recombinant TGFβ1 LAP (0.67 ug/ml) in binding buffer (0.05% BSA; 2.5% sucrose; 0.5 mM MnCl2; in 1×TBS) were added. The plate was incubated for 2 hours at 25° C., washed, and incubated for 1 hour with Biotin-Anti-hLAP. Bound antibody was detected by peroxidase-conjugated streptavidin. The IC50 values for testing compounds were calculated by a four-parameter logistic regression.
On to `O=C(N[C@@H](CCN1CCC(NCc2ccc3c(n2)NCCC3)CC1)C(=O)O)C1CCC(F)(F)CC1` [Compound 34], for which the IC50 (commonly the concentration at which inhibition is half-maximal) was above 1000 nM.
With `Cc1cc(C)n(-c2cccc(C(=O)N[C@@H](CCN3CC(CCc4ccc5c(n4)NCCC5)CC(F)(F)C3)C(=O)O)c2)n1` (stereo partly shown) [Compound 42] the figure was 250 to 4000 nM; with `NCCCc1ccc(CCC2CC3CCC2N3CC[C@H](NC(=O)c2cc(F)cc(C(F)(F)F)c2)C(=O)O)nc1` (stereo partly shown) [Compound 141], below 50 nM.
For the compound `O=C(N[C@@H](CCN1CCC[C@@](F)(CCc2ccc3c(n2)NCCC3)C1)C(=O)O)C1CCC(F)(F)CC1` [Compound 107], the IC50 worked out at 50 nM.
In the case of `O=C(O)[C@H](CCN1CC(CCc2ccc3c(n2)NCCC3)C1)NC(=O)[C@@H]1CCCN1Cc1ccccc1` [Compound 143], the IC50 is above 1000 nM.
For `CC(C)(O)CN1CCCC1C(=O)N[C@@H](CCN1CC(OCCc2ccc3c(n2)NCCC3)C1)C(=O)O` (stereo partly shown) [Compound 134], the IC50 fell in the range of 250 to 1000 nM.
`Cn1ncc2ccc(C(=O)N[C@@H](CCN3CCC[C@@](F)(CCc4ccc5c(n4)NCCC5)C3)C(=O)O)cc21` [Compound 106]: the IC50 was determined as 50 nM.

For the origin of these results see US11634418B2, “Amino acid compounds and methods of use” (Pliant Therapeutics, Inc., priority 2016, dated 2023).
